Data on 10 compounds can be found in ChEMBL document CHEMBL1201862, “PubChem BioAssay data set” (2004).

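Following 48 hours of exposure in 96-well plates, responses at five concentrations were used to interpolate endpoints linearly. GI50 = concentration required for 50% inhibition of growth.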 Activity calls are given as the source filed them. Rule as the data show it: active = GI50 up to about 1.1 µM and inactive = higher.

Holding throughout (experiment): NCI-60 cell line screen, 48 h
In test [1] the test system is Malme-3M.
The subject of test [2] is M14.
Test [3] concerns NCI-H23.
Test [4] has as its system PC-3.
Test [5] relates to HOP-62.
Test [6] has as its system SK-MEL-5.
The test system of test [7] is ACHN.
Test [8] deals with SK-MEL-28.
The subject of test [9] is T47D.
For test [10], the system named is HT-29.
For test [11], the system named is UACC-62.
For test [12], the system named is SF-539.
The subject of test [13] is SF-268.
In test [14] the test system is UO-31.
Test [15] has as its system OVCAR-8.
Test [16] deals with NCI-H522.
Test [17] deals with UACC-257.
Test [18] deals with OVCAR-5.
Test [19] relates to SK-OV-3.
For test [20], the system named is HOP-92.

Take `COc1cccc(C2c3cc4c(cc3OC(N3CCOCC3)C2C)OCO4)c1O` (stereo not given): the GI50 in test [1] is 4.99 µM (inactive); in test [2] it was 4.6 µM (inactive); in [3], 6.73 µM (inactive); in test [4], 4.7 µM (inactive); in [5] it was 4.27 µM (inactive); in test [6] it was 3.6 µM (inactive). In addition, the GI50 was 10.1 µM (inactive) in test [7]; 10.9 µM (inactive) in test [8]; 4.48 µM (inactive) in test [9]; 4.02 µM (inactive) in test [10]; 4.53 µM (inactive) in test [11]; 2.69 µM (inactive) in test [12]. Besides, the GI50 in test [13] was 6.89 µM (inactive); in test [14], 8.3 µM (inactive); in [15], 6.59 µM (inactive); in [16], 2.9 µM (inactive); in [17] it was 9.14 µM (inactive); in test [18], 7.46 µM (inactive). Also, the GI50 is 5.56 µM (inactive) in test [19] and 12.1 µM (inactive) in test [20].

Consider `O=C(c1ccco1)N(C(=O)N1CCN(c2ccccc2)CC1)S(=O)(=O)c1ccccc1`, for which the GI50 in [1] was 29 µM (inactive); in test [2] it was 23 µM (inactive); in test [3], 23.7 µM (inactive); in test [4], 28.6 µM (inactive); in test [5], 39.1 µM (inactive); in [6], 24.4 µM (inactive). Besides, the GI50 in test [7] was 24.7 µM (inactive); in test [8] it was 39.2 µM (inactive); in test [9] it was 24.2 µM (inactive); in [10], 35.8 µM (inactive); in test [11], 27.4 µM (inactive); in [12], 19.1 µM (inactive). Also, the GI50 in test [13] is 37.7 µM (inactive); in test [14], 21.9 µM (inactive); in test [15], 32.6 µM (inactive); in test [16], 18.3 µM (inactive); in test [17], 32 µM (inactive); in test [18], 41.6 µM (inactive). Further, the GI50 is > 100 µM (inactive) in test [19] and 27.3 µM (inactive) in [20].

For `O=C(O)c1nn[nH]c1S`, the GI50 in [1], in test [2], in test [3], in test [4], in [5] and in test [6] was > 100 µM (inactive) in each case. Further, the GI50 in test [7] was > 100 µM (inactive); in test [8], > 100 µM (inactive); in test [9], > 100 µM (inactive); in test [10], > 100 µM (inactive); in test [11], > 100 µM (inactive); in [12], 30.6 µM (inactive). For the same compound, the GI50 in test [13], in test [14], in [15], in test [16], in [17] and in test [18] was > 100 µM (inactive) each time. In addition, the results for the GI50 in test [19] and in test [20] were > 100 µM (inactive) and 4.59 µM (inactive), respectively.

`O=C(/C=C\c1ccc(Cl)cc1Cl)c1cccs1`: the GI50 in [1] is 21.4 µM (inactive); in test [2] it was 18.8 µM (inactive); in test [3], 19.2 µM (inactive); in test [4] it was 16.4 µM (inactive); in test [5], 24.3 µM (inactive); in test [6], 16.3 µM (inactive). The GI50 was 14.7 µM (inactive) in test [7]; 24.5 µM (inactive) in [8]; 21.9 µM (inactive) in test [9]; 23.4 µM (inactive) in test [10]; 14.7 µM (inactive) in [11]; 19.8 µM (inactive) in [12]. Moreover, the GI50 is 23.4 µM (inactive) in test [13]; 11.9 µM (inactive) in [14]; 12 µM (inactive) in test [15]; 21.2 µM (inactive) in [16]; 19.5 µM (inactive) in test [17]; 20 µM (inactive) in [18]. For the same compound, the GI50 in test [19] is 26.1 µM (inactive); in test [20] it was 26.4 µM (inactive).

On to `COC(=O)CCC(=O)NC1=C(Nc2ccccc2)C(=O)c2ccccc2C1=O`, for which the GI50 in test [1] was 2.55 µM (inactive); in [2], 3.58 µM (inactive); in test [3] it was 4.28 µM (inactive); in test [4], 12.4 µM (inactive); in test [5], 17.8 µM (inactive); in test [6], 1.83 µM (inactive). For the same compound, the GI50 in test [7] was 14.9 µM (inactive); in test [8] it was 8.51 µM (inactive); in test [9], 13.3 µM (inactive); in test [10], 16.9 µM (inactive); in [11], 3.67 µM (inactive); in test [12], 13 µM (inactive). Further, the GI50 in [13] is 13.2 µM (inactive); in test [14], 17.9 µM (inactive); in [15], 11.4 µM (inactive); in test [16], 14.8 µM (inactive); in [17], 2.84 µM (inactive); in test [18], 9.27 µM (inactive). Besides, the GI50 is 12.9 µM (inactive) in [19] and 15 µM (inactive) in test [20].

Regarding `CCC(N)(C(=O)O)C(C)C` (stereo not given), the GI50 in test [1], in test [2], in test [3], in test [4], in [5] and in test [6] was > 100 µM (inactive) in each case. Moreover, the GI50 in test [7], in [8], in test [9], in [10], in test [11] and in test [12] was > 100 µM (inactive) in each case. Besides, the GI50 in test [13], in test [14], in [15], in test [16], in test [17] and in test [18] was > 100 µM (inactive) each time. In addition, the results for the GI50 in test [19] and in test [20] were > 100 µM (inactive) and 34.8 µM (inactive), respectively.

`[Se]=P(c1ccccc1)(c1ccccc1)c1ccc(C(c2ccccc2)=P(c2ccccc2)(c2ccccc2)c2ccccc2)cc1`: the GI50 is 0.499 µM (active) in [1]; 1.54 µM (inactive) in test [2]; 0.891 µM (active) in test [3]; 0.8 µM (active) in [4]; 1.13 µM (inactive) in [5]; 0.505 µM (active) in [6]. In addition, the GI50 in test [7] was 2.44 µM (inactive); in [8], 2.28 µM (inactive); in test [9] it was 0.537 µM (active); in test [10], 0.406 µM (active); in [11] it was 1.02 µM (active); in test [12], 1.46 µM (inactive). Moreover, the GI50 is 0.514 µM (active) in [13]; 3.27 µM (inactive) in test [14]; 0.764 µM (active) in [15]; 0.33 µM (active) in test [16]; 0.817 µM (active) in test [17]; 3.05 µM (inactive) in test [18]. For the same compound, the GI50 in test [19] is 2.05 µM (inactive); in test [20], 0.357 µM (active).

For the compound `C=C1C(=O)C[C@H]2C(=C)C(=O)O[C@@H]2C2C1CC[C@@]2(C)O` (stereo not given in full), the GI50 in test [1] is 16.3 µM (inactive); in [2] it was 16.1 µM (inactive); in [3], 24.9 µM (inactive); in test [4], 30.6 µM (inactive); in [5], 31.3 µM (inactive); in test [6] it was 39.4 µM (inactive). The GI50 in test [7] was 12.2 µM (inactive); in test [8] it was 27.4 µM (inactive); in test [9] it was 28.2 µM (inactive); in test [10], 20 µM (inactive); in test [11] it was 14.9 µM (inactive); in test [12], 26.8 µM (inactive). For the same compound, the GI50 was > 100 µM (inactive) in [13]; 23.2 µM (inactive) in test [14]; 31.7 µM (inactive) in test [15]; 12.7 µM (inactive) in [16]; 21.5 µM (inactive) in test [17]; 32.8 µM (inactive) in test [18]. In addition, the results for the GI50 in test [19] and in test [20] were > 100 µM (inactive) and 26.4 µM (inactive), respectively.

With `COC(=O)C1C(O)C(C)C(O)C(C)C=C(C)C2=C3C(=C(C)C(=O)c4c(O)c(c(C)c(OC(C)=O)c43)NC(=O)C(C)=C/C=C\C(C)C(O)C(C)C1O)OCO2` (stereo not given), the GI50 is 16.2 µM (inactive) in [1]; 25.2 µM (inactive) in test [2]; 24.9 µM (inactive) in test [3]; 22.8 µM (inactive) in test [4]; > 100 µM (inactive) in [5]; 19.9 µM (inactive) in test [6]. Further, the GI50 in [7] was 27 µM (inactive); in test [8], 22.3 µM (inactive); in test [9] it was 31 µM (inactive); in test [10], 27.7 µM (inactive); in [11], 28 µM (inactive); in [12], 37.8 µM (inactive). The GI50 in [13] was 16.1 µM (inactive); in test [14], 25.9 µM (inactive); in [15], 27.7 µM (inactive); in [16] it was 16 µM (inactive); in [17], 13.4 µM (inactive); in test [18] it was > 100 µM (inactive). For the same compound, the GI50 in [19] was > 100 µM (inactive); in [20], 14.9 µM (inactive).

Turning to `COc1ccc(C(=O)c2sc(Nc3ccc(Cl)cc3)nc2N)cc1`, the GI50 was 12.3 µM (inactive) in test [1]; > 63.8 µM (inactive) in [2]; 13.6 µM (inactive) in test [3]; 12.1 µM (inactive) in [4]; 7.91 µM (inactive) in test [5]; 18.3 µM (inactive) in test [6]. For the same compound, the GI50 is 25.4 µM (inactive) in [7]; 29.4 µM (inactive) in test [8]; 37.6 µM (inactive) in test [9]; 4.43 µM (inactive) in test [10]; 19.3 µM (inactive) in test [11]; 14 µM (inactive) in test [12]. For the same compound, the GI50 in test [13] is 8.15 µM (inactive); in [14] it was 38.2 µM (inactive); in test [15], 25.9 µM (inactive); in test [16] it was 3.89 µM (inactive); in test [17], 11.9 µM (inactive); in test [18], > 49.9 µM (inactive). Also, the results for the GI50 in test [19] and in [20] were 6.35 µM (inactive) and 35.3 µM (inactive), respectively.
